Experimental data as given in US20160235069A1, “N-ACRYLIMINO HETEROCYCLIC COMPOUNDS” (BASF SE, priority 2013, published 2016).
Like-named read-outs stand apart in the source and are kept apart here.

How the values were obtained:
Assay type in all cases: in vivo
Megoura viciae = test: Vetch aphid (Megoura viciae), contact or systemic, broad bean leaf disks; conditions: foliar, 120 h, read-out: mortality in comparison with untreated controls
Protocol: For evaluating control of vetch aphid (Megoura viciae) through contact or systemic means the test unit consisted of 24-well-microtiter plates containing broad bean leaf disks.
The compounds were formulated using a solution containing 75% v/v water and 25% v/v DMSO. Different concentrations of formulated compounds were sprayed onto the leaf disks at 2.5 μl, using a custom built micro atomizer, at two replications.
After application, the leaf disks were air-dried and 5-8 adult aphids were placed on the leaf disks inside the microtiter plate wells. The aphids were then allowed to suck on the treated leaf disks and were incubated at about 23±1° C. and about 50±5% relative humidity for 5 days. Aphid mortality and fecundity was then visually assessed.

Nephotettix virescens = test: Rice green leafhopper (Nephotettix virescens), sprayed rice seedlings; conditions: read-out: mortality in comparison with untreated controls
Protocol: Rice seedlings are cleaned and washed 24 hours before spraying. The active compounds are formulated in 50:50 acetone:water (vol:vol), and 0.1% vol/vol surfactant (EL 620) is added. Potted rice seedlings are sprayed with 5 ml test solution, air dried, placed in cages and inoculated with 10 adults. Treated rice plants are kept at about 28-29° C. and relative humidity of about 50-60%. Percent mortality is recorded after 72 hours.

Myzus persicae = test: Green peach aphid (Myzus persicae), systemic, artificial diet in 96-well plates; conditions: 72 h, read-out: mortality in comparison with untreated controls
Source text: General conditions: If not otherwise specified, most test solutions are to be prepared as follows: The active compound is to be dissolved at the desired concentration in a mixture of 1:1 (vol:vol) distilled water:acteon. Further, the test solutions are to be prepared at the day of use (and, if not otherwise specified, in general at concentrations wt/vol).
For evaluating control of green peach aphid (Myzus persicae) through systemic means, the test unit consists of 96-well-microtiter plates containing liquid artificial diet under an artificial membrane.
The compounds are formulated using a solution containing 75% v/v water and 25% v/v DMSO. Different concentrations of formulated compounds are pipetted into the aphid diet, using a custom built pipetter, at two replications.
After application, 5-8 adult aphids are placed on the artificial membrane inside the microtiter plate wells. The aphids are then allowed to suck on the treated aphid diet and incubated at about 23+1° C. and about 50+5% relative humidity for 3 days. Aphid mortality and fecundity is then visually assessed.

Plutella xylostella = test: Diamond back moth (Plutella xylostella), dipped cabbage leaves; conditions: 3rd instar larvae on dipped cabbage leaves, 72 hours after treatment, read-out: mortality in comparison with untreated controls
Protocol: The active compound is dissolved at the desired concentration in a mixture of 1:1 (vol:vol) distilled water: acetone. Surfactant (Kinetic HV) is added at a rate of 0.01% (vol/vol). The test solution is prepared at the day of use.
Leaves of cabbage were dipped in test solution and air-dried. Treated leaves were placed in petri dishes lined with moist filter paper and inoculated with ten 3rd instar larvae. Mortality was recorded 72 hours after treatment. Feeding damages were also recorded using a scale of 0-100%.

Aphis craccivora = test: Cowpea aphid (Aphis craccivora), sprayed potted cowpea plants; conditions: 72 h, read-out: mortality in comparison with untreated controls
Protocol: The active compound is dissolved at the desired concentration in a mixture of 1:1 (vol:vol) distilled water: acetone. Surfactant (Alkamuls® EL 620) is added at a rate of 0.1% (vol/vol). The test solution is prepared at the day of use.
Potted cowpea plants are colonized with approximately 50-100 aphids of various stages by manually transferring a leaf tissue cut from infested plant 24 hours before application. Plants are sprayed after the pest population has been recorded. Treated plants are maintained on light carts at about 28° C. Percent mortality is assessed after 72 hours.

Nilaparvata lugens = test: Rice brown plant hopper (Nilaparvata lugens), sprayed rice seedlings; conditions: 72 h, read-out: mortality in comparison with untreated controls
Protocol: Rice seedlings are cleaned and washed 24 hours before spraying. The active compounds is formulated in 50:50 acetone:water (vol:vol) and 0.1% vol/vol surfactant (EL 620) was added. Potted rice seedlings are sprayed with 5 ml test solution, air dried, placed in cages and inoculated with 10 adults. Treated rice plants are kept at about 28-29° C. and relative humidity of about 50-60%. Percent mortality is recorded after 72 hours.

Dichromothrips corbetti = test: Orchid thrips (Dichromothrips corbetti), floral-immersion technique; conditions: 72 h, read-out: mortality in comparison with untreated controls
Protocol: Dichromothrips corbetti adults used for bioassay are obtained from a colony maintained continuously under laboratory conditions. For testing purposes, the test compound is diluted in a 1:1 mixture of acetone:water (vol:vol), plus 0.01% vol/vol Alkamuls® EL 620 surfactant.
Thrips potency of each compound is evaluated by using a floral-immersion technique. Plastic petri dishes are used as test arenas. All petals of individual, intact orchid flowers are dipped into treatment solution and allowed to dry. Treated flowers are placed into individual petri dishes along with about 20 adult thrips. The petri dishes are then covered with lids. All test arenas are held under continuous light and a temperature of about 28° C. for duration of the assay. After 3 days, the numbers of live thrips are counted on each flower, and along inner walls of each petri dish. The percent mortality is recorded 72 hours after treatment.

Aphis gossypii = test: Cotton aphid (Aphis gossypii), sprayed potted plants; conditions: 72 h, read-out: mortality in comparison with untreated controls
Anthonomus grandis = test: Boll weevil (Anthonomus grandis), insect diet with eggs in 96-well plates; conditions: 120 h, read-out: mortality in comparison with untreated controls
Protocol: For evaluating control of boll weevil (Anthonomus grandis) the test unit consisted of 96-well-microtiter plates containing an insect diet and 5-10 A. grandis eggs.
The compounds were formulated using a solution containing 75% v/v water and 25% v/v DMSO. Different concentrations of formulated compounds were sprayed onto the insect diet at 5 μl, using a custom built micro atomizer, at two replications.
After application, microtiter plates were incubated at about 25±1° C. and about 75±5% relative humidity for 5 days. Egg and larval mortality was then visually assessed.

C=C(F)C(=O)/N=c1\ccccn1Cc1cnn(C)c1 [Compound E1.16]
≥ 75%: mortality at 2500 ppm (Megoura viciae; 2500 ppm, adult aphids on sprayed leaf disks, 5 days) | mortality at 500 ppm (Nephotettix virescens; 500 ppm, adults on sprayed rice seedlings, after 72 hours) | mortality at 2500 ppm (Myzus persicae; 2500 ppm, adult aphids on treated diet, 3 days) | mortality at 500 ppm (Plutella xylostella)

C=C(F)C(=O)/N=c1\ccccn1Cc1ccc(Cl)nc1 [Compound E1.3]
≥ 75%: mortality at 500 ppm (Aphis craccivora) | mortality at 2500 ppm (Megoura viciae) | mortality at 500 ppm (Nilaparvata lugens) | mortality at 500 ppm (Nephotettix virescens; 72 h) | mortality at 2500 ppm (Myzus persicae) | mortality at 500 ppm (Dichromothrips corbetti) | mortality at 500 ppm (Aphis gossypii)

CC(C)(C)C/C=C(\C#N)C(=O)/N=c1\ccccn1Cc1ccc(Cl)nc1 [Compound E1.28]
≥ 75%: mortality at 500 ppm (Aphis craccivora) | mortality at 2500 ppm (Megoura viciae) | mortality at 2500 ppm (Anthonomus grandis) | mortality at 2500 ppm (Myzus persicae)
